{
  "source": "patent US10774080B2",
  "about": "“Pyrimidine compound as JAK kinase inhibitor” (THERAVANCE BIOPHARMA R&D IP, LLC, priority 2017, dated 2020)",
  "format_in_all_cases": "cell-based",
  "key": {"[1]": {"tested_on": "TSLP-induced TARC release from PBMCs", "assay": "Assay 4: TSLP-induced TARC assay in human PBMC", "settings": "10 ng/mL TSLP, 48 hours, read-out: pIC50 for inhibition of TSLP induced TARC (converted)", "excerpt": "Assay 4: In Vitro TSLP-Induced TARC Assay in Human PBMC\nThe binding of TSLP to its receptor induces a conformational change that activates JAK1 and JAK2 to phosphorylate various transcription factors including STAT3 and STAT5. In skin-resident immune cells, this triggers a cascade of intracellular events that result in cell proliferation, anti-apoptosis, dendritic cell migration, and production of Th2 cytokines and chemokines. During the acute phase of atopic dermatitis, the skin is invaded by Th2 lymphocytes. In primary peripheral blood mononuclear cells (PBMCs), TSLP has a pro-inflammatory effect by activating myeloid dendritic cells to attract and stimulate T cells. This process is mediated by thymus and activation-regulated chemokine (TARC/CCL17). […]\nIn this assay, it was shown that TSLP stimulation induces TARC release from PBMCs, and that this response is attenuated in a dose-dependent manner upon treatment with compound (I). […] After 48 hours, the cell supernatants were collected, and TARC was measured using Human CCL17/TARC Quantikine ELISA Kit.\nFor dose-response analysis, percent inhibition data were plotted vs. compound concentrations, and IC50 values were determined from a 4-parameter robust fit model with the GraphPad Prism software. Results may also be expressed as the negative logarithm of the IC50 value, pIC50."}, "[2]": {"tested_on": "IL-13-induced STAT6 phosphorylation in BEAS-2B cells", "assay": "Assay 2: cellular JAK potency, IL-13-induced STAT6 phosphorylation in BEAS-2B cells", "settings": "Homo sapiens, read-out: pIC50 for inhibition of IL-13 induced STAT6 phosphorylation (converted)", "description": "Assay 2: Cellular JAK Potency Assay: Inhibition of IL-13-Induced STAT6 Phosphorylation in BEAS-2B Cells\nThe cellular potency assay for JAK inhibition was carried out by measuring interleukin-13 (IL-13, R&D Systems) induced STAT6 phosphorylation in BEAS-2B human lung epithelial cells (ATCC). The anti-STAT6 antibody (Cell Signaling Technologies) was conjugated to AlphaScreen acceptor beads (Perkin Elmer), while the anti-pSTAT6 (pTyr641) antibody (Cell Signaling Technologies) was biotinylated using EZ-Link Sulfo-NHS-Biotin (Thermo Scientific).\nBEAS-2B cells were grown at 37° C. in a 5% CO2 humidified incubator in 50% DMEM/50% F-12 medium (Life Technologies) supplemented with 10% FBS (Hyclone), 100 U/mL penicillin, 100 μg/mL streptomycin (Life Technologies), and 2 mM GlutaMAX (Life Technologies). […] After a minimum of 2 h incubation, the assay plates were read on the EnVision plate reader. AlphaScreen luminescence signals were recorded and utilized to calculate the percent inhibition values based on DMSO and background controls.\nFor dose-response analysis, percent inhibition data were plotted vs. compound concentrations, and IC50 values were determined from a 4-parameter robust fit model with the Prism software. Results may also be expressed as the negative logarithm of the IC50 value, pIC50."}, "[3]": {"tested_on": "IL-22 stimulated STAT3 phosphorylation in normal human epidermal keratinocytes", "assay": "Assay 14: inhibition of IL-22 stimulated pSTAT3 in normal human epidermal keratinocytes", "settings": "Keratinocyte, read-out: pIC50 for inhibition of IL-22 induced STAT3 phosphorylation (converted)", "description": "Assay 14: Inhibition of IL-22 Stimulated pSTAT3 in Normal Human Epidermal Keratinocytes\nThe potency of test compounds for inhibition of interleukin-22 (IL-22) stimulated STAT3 phosphorylation was measured in the normal human epidermal keratinocytes (ATCC) using AlphaLisa. Phosphorylated STAT3 was measured via the AlphaLISA SureFire Ultra pSTAT3 (Tyr705) kit (PerkinElmer).\nPrimary epidermal keratinocytes were cultured in a 37° C., 5% CO2 humidified incubator in dermal cell basal medium (ATCC) supplemented with keratinocyte growth kit (ATCC) and 1× Pen/Strep (Life Technologies). […]\nAfter cytokine stimulation, cells were lysed with 5 ul of 5× AlphaLisa Lysis Buffer (PerkinElmer) containing 1× PhosStop and Complete tablets (Roche). […] Phosphorylated STAT3 was measured via the pSTAT3 AlphaLisa kit (PerkinElmer). […] Luminescence was measured with excitation at 689 nm and emission at […] using an EnVision plate reader (PerkinElmer) under green filtered <100 lux light.\nLuminescence signals were recorded and utilized to calculate the percent inhibition values based on DMSO and controls. For dose-response analysis, percent inhibition data were plotted vs. compound concentrations, and IC50 values were determined from a 4-parameter robust fit model with the Prism software."}},
  "data": [
    {"compound": "CCS(=O)(=O)N1[C@@H]2CCC[C@H]1C[C@H](N(C)c1nc(CO)c(F)c(Nc3cc(C)[nH]n3)n1)C2", "note": "[Compound (I), (2-(((1R,3s,5S)-9-(ethylsulfonyl)-9-azabicyclo[3.3.1]nonan-3-yl)(methyl)amino)-5-fluoro-6-((5-methyl-1H-pyrazol-3-yl)amino)pyrimidin-4-yl)methanol]", "values": [
      {"measurement": "IC50", "setting": "[1]", "value": 15.8, "unit": "nM"},
      {"measurement": "IC50", "setting": "[2]", "value": 3.16, "unit": "nM"},
      {"measurement": "IC50", "setting": "[3]", "value": 3.98, "unit": "nM"}
    ]}
  ]
}
